From patent publication US12508323B2, “Method of treatment of colorectal, breast and lung cancer with metal containing immune agonist complexes” (HANGZHOU XINGAO BIOTECHNOLOGY CO., LTD., priority 2020, dated 2025)

What was measured:
[1] = test system: colorectal cancer cell line CT26; test: Subcutaneous transplantation tumor model, CT26 in BALB/C mice; type: in vivo; settings: i.p. 10 mg/kg (nanobody 200 μg/mouse) once a day for 21 days
Experimental: (§1) Specific pathogen free (SPF)-grade BALB/C and C57BL/6 male mice, aged 7-8 weeks and weighing 20-22 g, were purchased from Shanghai Slac Laboratory Animal Co., Ltd (Laboratory animal quality certificate number: SCXK (Shanghai)2007-0005.
(§2) Mice were injected intraperitoneally with the immune agonist or complex with a dose of 10 mg/kg, or each injected intraperitoneally with 200 μg of the nanobody.
(§3) Administration route: intraperitoneal injection.
(§4) Frequency: once a day for consecutive 21 days.
(§5) Cancer cells were cultured, passaged, collected at the logarithmic phase of cells, and prepared into a cell suspension at a concentration of (1.0×10^7) per ml. Mice were injected with 0.2 ml of the cell suspension at the axilla of the right forelimb (cell number 2.0×10^6 cells/each), and were tumorigenic in about 8 days. These mice were randomly divided into 10 groups equally, namely, group A: negative control group (saline group), group B: positive control (cGAMP) group (dose: 10 mg/kg), group C: MncGAMP group (dose: 10 mg/kg), group D: anti-PD-L1 nanobody group, group E: anti-CD47 nanobody group, group F: anti-TfR1 nanobody group, group G: complex V group (dose: 10 mg/kg), group H: complex VI group (dose: 10 mg/kg), group I: complex IX group (dose: 10 mg/kg), and group J: complex VIII group (10 mg/kg). […]
(§6) The data were expressed as ×±s and processed by SPSS10.0 software. […]

[2] = test system: lung cancer Lewis tumor line LL/2; test: Subcutaneous transplantation tumor model, LL/2 in C57BL/6 mice; type: in vivo; settings: i.p. 10 mg/kg (nanobody 200 μg/mouse) once a day for 21 days
Experimental: as §1, §2, §3, §4, §5, §6

[3] = test system: breast cancer cell line 4T1; test: Subcutaneous transplantation tumor model, 4T1 in BALB/C mice; type: in vivo; settings: i.p. 10 mg/kg (nanobody 200 μg/mouse) once a day for 21 days
Experimental: as §1, §2, §3, §4, §5, §6

[4] = test system: coronavirus (ATCC VR-841); test: Inhibition of coronavirus replication in PBMCs (fluorescence quantitative RT-PCR); type: cell-based; settings: PBMC, 504 h, 100 μg/mL drug, 10 μL virus, after three weeks, six samples per group, read-out: Average inhibition rate of coronavirus (%)
Source text: Peripheral blood mononuclear cells (PBMCs) used herein was purchased from Shanghai Saili biotechnology Co., Ltd, which mainly included lymphocytes (T cells/B cells), monocytes, macrophages, and dendritic cells. Most of PBMCs were lymphocytes. PBMCs were normal primary cells, which belonged to a mixed system.
The virus strain used herein was coronavirus (ATCC VR-841), which was suitable for laboratory use and purchased from ATCC company. It was a bronchopneumonia coronavirus. Virus experiments in this study were performed by virus laboratory of American Animals Inc.
The cultured PBMCs were divided into seven groups (six samples in each group), namely, group A: negative control group (PBMC); group B, PBMC+cGAMP; group C, PBMC+MncGAMP; group D, PBMC+complex VIII; group E, PBMC+complex I; group F, PBMC+complex II; and group G, PBMC+complex III. Except for group A, which was used as a control group without drug addition, all other groups were respectively added with 100 μg/mL of the corresponding drug. Each cell sample was added with 10 μL of virus, and the antiviral status of the different immune agonist complexes were determined after three weeks. The inhibition rate of virus was selected as an evaluation index. The activity titer of the virus was detected by fluorescence quantitative RT-PCR.

[5] = test system: dendritic cell DCs and T cells; test: Activation of immune cells (flow cytometry of spleen and lung cells); type: in vivo, mice; settings: 14 days after immunization, mouse spleen and lung tissues
Experimental: Mice were raised, immunized with virus infection, and subjected to blood collection, as the same as Example 3. Isotype control nanobody was purchased from eBiosciences; antibody magnetic beads were purchased from Militeny Biotech; and flow cytometer was purchased from BD company. 14 days after immunization, mouse spleen and lung tissues were taken, ground and pounded separately, filtered with a 40-μm filter, and centrifuged at 1000 rpm for 10 min to separate unlysed immune cells. The DC cells (CD40\CD80\CD86\MHCII), T cells and (CD8+) cells were separated by the antibody magnetic beads, and added with the corresponding FAC nanobody (diluted with FACS buffer). As a negative control, the isotype control nanobody was added into the DC cells followed by incubation for 1 h, centrifugation, and rinsing with PBS. After that, the samples were analyzed by the flow cytometry to select the appropriate cells for determination of fluorescence intensity (MFI), and the results were shown in Table 8.

[6] = test system: pro-inflammatory factors IL-1β and TNF-α; test: Pro-inflammatory factors in brain tissues of AD mice (ELISA); type: in vivo; settings: 10 mg/kg i.p., two months of administration
Experimental: To explore the effect of the above immune agonists and complexes thereof on neuroinflammation in the brain of AD mice, the content of pro-inflammatory factors in brain tissues of AD mice was determined by ELISA method. The content of pro-inflammatory factors IL-1β and TNF-α in brain tissues of AD mice were measured respectively.
Fresh brain tissues of mice were taken and weighed, and the content of inflammatory factors IL-1β and TNF-α in brain tissues was determined by using the Cloud Clone ELISA kit. […] Therefore, the immune agonist-brain-targeted nanocarrier complexes were able to eliminate the chronic neuroinflammation present in the course of AD in mice.

[7] = vs negative control tumor weight

## Nc1nc(=O)c2ncn(C3OC4COP(=O)(O)OC5C(COP(=O)(O)OC3C4O)OC(n3cnc4c(N)ncnc43)C5O)c2[nH]1 (stereo not drawn) [cGAMP, 2′3′-cGAMP]
[1]; n = 10, mean ± SD
  Average tumor weight: 0.784 ± 0.135 g
[1]; [7]
  Average tumor inhibition rate (%): 65.0%
[2]; n = 10, mean ± SD
  Average tumor weight: 1.138 ± 0.127 g
[2]; [7]
  Average tumor inhibition rate (%): 60.0%
[3]; n = 10, mean ± SD
  Average tumor weight: 0.862 ± 0.156 g
[3]; [7]
  Average tumor inhibition rate (%): 61.9%
[4]
  inhibition at 100 µg/mL: 25 ± 4%
[5]
  CD8 cells (%): 2.3 ± 0.2%
  CD40 cells (%): 122.6%
  CD80 cells (%): 115.5%
  CD86 cells (%): 18.3%
  MHCII cells (%): 218.4%
  T cells (%): 0.3 ± 0.2%
[6]
  IL-1β: 46.18 ± 0.09 pg/mg
  TNF-α: 35.52 ± 0.35 pg/mg
